target: T1, Recombinant human EP300 containing the bromodomain (EP300-BD (1040-1161)) (Homo sapiens, UniProt Q09472); assay: EP300 Alphascreen binding assay
T1 construct: Recombinant human EP300 bromodomain (EP300-BD (1040-1161)); made in house; host or cells: E. coli BL21-CodonPlus (DE3), modified pET vector
T1 sequence (Q09472 1040-1161): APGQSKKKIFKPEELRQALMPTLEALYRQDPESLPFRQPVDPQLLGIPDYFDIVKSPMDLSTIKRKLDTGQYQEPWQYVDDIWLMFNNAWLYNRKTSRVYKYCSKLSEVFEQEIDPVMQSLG
Procedure, shortened: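 Displacement of a biotinylated acetyl-K56 histone H3 peptide from the N-His bromodomain construct (1040-1161) measured by AlphaScreen proximity, beads at 7.5 μg/ml final, read 60 min after addition. Protein, peptide and compound first incubated 1 h at room temperature, pH 7.5 HEPES buffer; IC50 by four-parameter logistic fit.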

| Compound | IC50 [nM] |
| --- | --- |
| Cc1noc(C)c1-c1cnc2c(c1)c(-c1ccc(C(=O)O)cc1)cn2C(C)c1ncccn1 (centres unmarked) [P-0013, 4-(5-(3,5-dimethylisoxazol-4-yl)-1-(1-(pyrimidin-2-yl)ethyl)-1H-pyrrolo[2,3-b]pyridin-3-yl)benzoic acid] | 0.1 to 1000 |
| Cc1noc(C)c1-c1cnc2c(c1)c(-c1ccc(C(=O)O)cc1)cn2C(C)c1ccc(F)cn1 (centres unmarked) [P-0014, 4-(5-(3,5-dimethylisoxazol-4-yl)-1-(1-(5-fluoropyridin-2-yl)ethyl)-1H-pyrrolo[2,3-b]pyridin-3-yl)benzoic acid] | 0.1 to 1000 |
| Cc1noc(C)c1-c1cnc2c(c1)c(-c1cccc(C(=O)O)c1)cn2C(c1ccccn1)C1CCCC1 (centres unmarked) [P-0015, 3-(1-(cyclopentyl(pyridin-2-yl)methyl)-5-(3,5-dimethylisoxazol-4-yl)-1H-pyrrolo[2,3-b]pyridin-3-yl)benzoic acid] | 0.1 to 1000 |
| Cc1noc(C)c1-c1cnc2c(c1)c(-c1ccc(F)c(C(=O)O)c1)cn2C(c1ccccn1)C1CCCC1 (centres unmarked) [P-0016, 5-(1-(cyclopentyl(pyridin-2-yl)methyl)-5-(3,5-dimethylisoxazol-4-yl)-1H-pyrrolo[2,3-b]pyridin-3-yl)-2-fluorobenzoic acid] | 0.1 to 1000 |
| Cc1noc(C)c1-c1cnc2c(c1)c(-c1ccnc(C(=O)O)c1)cn2C(c1ccccn1)C1CCCC1 (centres unmarked) [P-0017, 4-(1-(cyclopentyl(pyridin-2-yl)methyl)-5-(3,5-dimethylisoxazol-4-yl)-1H-pyrrolo[2,3-b]pyridin-3-yl)picolinic acid] | 0.1 to 1000 |
| Cc1noc(C)c1-c1cnc2c(c1)c(-c1cccc(CC(=O)O)c1)cn2C(c1ccccn1)C1CCCC1 (centres unmarked) [P-0018, 2-(3-(1-(cyclopentyl(pyridin-2-yl)methyl)-5-(3,5-dimethylisoxazol-4-yl)-1H-pyrrolo[2,3-b]pyridin-3-yl)phenyl)acetic acid] | 0.1 to 1000 |
| Cc1noc(C)c1-c1cnc2c(c1)c(-c1ccncc1)cn2C(c1ccccn1)C1CCCC1 (centres unmarked) [P-0019, 4-(1-(cyclopentyl(pyridin-2-yl)methyl)-3-(pyridin-4-yl)-1H-pyrrolo[2,3-b]pyridin-5-yl)-3,5-dimethylisoxazole] | 1000 to 8000 |
| Cc1noc(C)c1-c1cnc2c(c1)c(-c1ccc(C(=O)O)cc1OC1CC1)cn2[C@@H](C)c1ccccn1 [P-0170, (S)-3-cyclopropoxy-4-(5-(3,5-dimethylisoxazol-4-yl)-1-(1-(pyridin-2-yl)ethyl)-1H-pyrrolo[2,3-b]pyridin-3-yl)benzoic acid] | 0.1 to 1000 |
| Cc1noc(C)c1-c1cnc2c(-c3ccc(C(=O)O)cc3C#CC3CC3)cn([C@@H](C)c3ccccn3)c2c1 [P-0171, (S)-3-(cyclopropylethynyl)-4-(6-(3,5-dimethylisoxazol-4-yl)-1-(1-(pyridin-2-yl)ethyl)-1H-pyrrolo[3,2-b]pyridin-3-yl)benzoic acid] | 0.1 to 1000 |
| COc1ccc(C(=O)O)cc1-c1cn(C(C)(c2ccccn2)c2ccccn2)c2cc(-c3c(C)noc3C)cnc12 [P-0172, 3-(1-(1,1-di(pyridin-2-yl)ethyl)-6-(3,5-dimethylisoxazol-4-yl)-1H-pyrrolo[3,2-b]pyridin-3-yl)-4-methoxybenzoic acid] | 1000 to 8000 |
| CCOc1cc(C(=O)O)cc(OCC)c1-n1cc(-c2cccnc2)c2ncc(-c3c(C)noc3C)cc21 [P-0173, 4-(6-(3,5-dimethylisoxazol-4-yl)-3-(pyridin-3-yl)-1H-pyrrolo[3,2-b]pyridin-1-yl)-3,5-diethoxybenzoic acid] | 0.1 to 1000 |
| CCOc1cc(C(=O)O)cc(OC(C)C)c1-c1cn([C@@H](C)c2ccccn2)c2ncc(-c3c(C)noc3C)cc12 [P-0174, (S)-4-(5-(3,5-dimethylisoxazol-4-yl)-1-(1-(pyridin-2-yl)ethyl)-1H-pyrrolo[2,3-b]pyridin-3-yl)-3-ethoxy-5-isopropoxybenzoic acid] | 0.1 to 1000 |
| Cc1noc(C)c1-c1cnc2c(c1)c(-c1ccc(C(=O)O)cc1OC(F)(F)F)cn2-c1cccnc1 [P-0175, 4-(5-(3,5-dimethylisoxazol-4-yl)-1-(pyridin-3-yl)-1H-pyrrolo[2,3-b]pyridin-3-yl)-3-(trifluoromethoxy)benzoic acid] | 0.1 to 1000 |
| COc1ccncc1-n1cc(-c2ccc(C(=O)O)cc2OC(F)(F)F)c2cc(-c3c(C)noc3C)cnc21 [P-0176, 4-(5-(3,5-dimethylisoxazol-4-yl)-1-(4-methoxypyridin-3-yl)-1H-pyrrolo[2,3-b]pyridin-3-yl)-3-(trifluoromethoxy)benzoic acid] | 0.1 to 1000 |
| Cc1noc(C)c1-c1cnc2c(c1)c(-c1ccc(C(=O)O)cc1OC(F)(F)F)cn2-c1cnccc1Cl [P-0177, 4-(1-(4-chloropyridin-3-yl)-5-(3,5-dimethylisoxazol-4-yl)-1H-pyrrolo[2,3-b]pyridin-3-yl)-3-(trifluoromethoxy)benzoic acid] | 0.1 to 1000 |
| Cc1noc(C)c1-c1cnc2c(c1)c(-c1ccc(C(=O)O)cc1C#CC1CC1)cn2[C@@H](C)c1ccccn1 [P-0178, (S)-3-(cyclopropylethynyl)-4-(5-(3,5-dimethylisoxazol-4-yl)-1-(1-(pyridin-2-yl)ethyl)-1H-pyrrolo[2,3-b]pyridin-3-yl)benzoic acid] | 1000 to 8000 |
| Cc1noc(C)c1-c1cnc2c(c1)c(-c1ccc(C(=O)O)cc1OC1CCC1)cn2[C@@H](C)c1ccccn1 [P-0179, (S)-3-cyclobutoxy-4-(5-(3,5-dimethylisoxazol-4-yl)-1-(1-(pyridin-2-yl)ethyl)-1H-pyrrolo[2,3-b]pyridin-3-yl)benzoic acid] | 0.1 to 1000 |
| Cc1noc(C)c1-c1cnc2c(c1)c(-c1ccc(C(=O)O)cc1OC(F)(F)F)cn2-c1ncccc1C(F)(F)F [P-0180, 4-(5-(3,5-dimethylisoxazol-4-yl)-1-(3-(trifluoromethyl)pyridin-2-yl)-1H-pyrrolo[2,3-b]pyridin-3-yl)-3-(trifluoromethoxy)benzoic acid] | 0.1 to 1000 |
| Cc1noc(C)c1-c1cnc2c(c1)c(-c1ccc(C(=O)O)cc1C1CC1)cn2[C@@H](C)c1ccccn1 [P-0181, (S)-3-cyclopropyl-4-(5-(3,5-dimethylisoxazol-4-yl)-1-(1-(pyridin-2-yl)ethyl)-1H-pyrrolo[2,3-b]pyridin-3-yl)benzoic acid] | 0.1 to 1000 |
| Cc1noc(C)c1-c1cnc2c(c1)c(-c1ccc(C(=O)O)cc1OC(F)(F)F)cn2-c1ncccc1F [P-0182, 4-(5-(3,5-dimethylisoxazol-4-yl)-1-(3-fluoropyridin-2-yl)-1H-pyrrolo[2,3-b]pyridin-3-yl)-3-(trifluoromethoxy)benzoic acid] | 0.1 to 1000 |
| Cc1noc(C)c1-c1cnc2c(c1)c(-c1ccc(C(=O)O)cc1OC(F)(F)F)cn2-c1ncccc1Cl [P-0183, 4-(1-(3-chloropyridin-2-yl)-5-(3,5-dimethylisoxazol-4-yl)-1H-pyrrolo[2,3-b]pyridin-3-yl)-3-(trifluoromethoxy)benzoic acid] | 0.1 to 1000 |
| CCOc1cc(C(=O)O)cc(OCC)c1-n1cc(-c2ccc(F)cc2)c2ncc(-c3c(C)noc3C)cc21 [P-0184, 4-(6-(3,5-dimethylisoxazol-4-yl)-3-(4-fluorophenyl)-1H-pyrrolo[3,2-b]pyridin-1-yl)-3,5-diethoxybenzoic acid] | 0.1 to 1000 |
| CCOc1cc(C(=O)O)cc(OCC)c1-n1cc(-c2cccc(Cl)c2)c2ncc(-c3c(C)noc3C)cc21 [P-0185, 4-(3-(3-chlorophenyl)-6-(3,5-dimethylisoxazol-4-yl)-1H-pyrrolo[3,2-b]pyridin-1-yl)-3,5-diethoxybenzoic acid] | 0.1 to 1000 |

Reference: patent publication US11446287B2, “Compounds and methods for EP300 or CBP modulation and indications therefor” (Opna Immuno-Oncology SA, priority 2019, dated 2022)
